# Reference: patent publication US8034353B2, “Peptide vaccine for inducing the production of anti-amyloid β-peptide antibody” (priority 2006, dated 2011)
# Like-named read-outs stand apart in the source and are kept apart here.
# Tests used:
# T-cell [1] = type: cell-based, mice
# T-cell [2] = type: cell-based, human
# Aβ (SEQ ID NO:2) = experiment: Anti-Aβ antibody titer in serum of transnasally vaccinated mice, ELISA (Experiment 1); type: in vivo, BALB/c female mice; conditions: BALB/c mice, transnasal 50 μg/mouse/once, four times at two weeks interval, serum one week after last administration
# Source text: The results are in Table 1.
substance,measurement,setting,value
AYNFVESIINLFQVVHNSYN (diphtheria toxoid (partial sequence)) [DTL],Induction of blastogenesis of the T-cell,T-cell [1],inducing the blastogenesis of the T-cell
same,Induction of blastogenesis of the T-cell,T-cell [2],inducing the blastogenesis of the T-cell
"RGD-Gag-KK-Aβ(1-13): RGD motif, Gag T-cell epitope (HIV-1 Gag 298-312), KK linker, Aβ(1-13) B-cell epitope (RGDKRWIILGLNKIVRMYKKDAEFRHDSGYEVH; peptide for the production of anti-amyloid beta antibody)",Antibody titer Anti-Aβ antibody,Aβ (SEQ ID NO:2),32
QYIVNEDKFQILYNSIMYGF (tetanus toxoid (partial sequence)) [TetT3L],Induction of blastogenesis of the T-cell,T-cell [1],inducing the blastogenesis of the T-cell
same,Induction of blastogenesis of the T-cell,T-cell [2],inducing the blastogenesis of the T-cell
"RGD-Gag-KK-Aβ(1-11): RGD motif, Gag T-cell epitope (HIV-1 Gag 298-312), KK linker, Aβ(1-11) B-cell epitope (RGDKRWIILGLNKIVRMYKKDAEFRHDSGYE; peptide for the production of anti-amyloid beta antibody)",Antibody titer Anti-Aβ antibody,Aβ (SEQ ID NO:2),14.9
"RGD-Gag-KK-Aβ(3-11): RGD motif, Gag T-cell epitope (HIV-1 Gag 298-312), KK linker, Aβ(3-11) B-cell epitope (RGDKRWIILGLNKIVRMYKKEFRHDSGYE; peptide for the production of anti-amyloid beta antibody)",Antibody titer Anti-Aβ antibody,Aβ (SEQ ID NO:2),22.6
